Laboratory results taken from patent US12173350B2, “Chemiluminescent probes for imaging/detection of proteases” (RAMOT AT TEL-AVIV UNIVERSITY LTD., priority 2017, dated 2024).
“Also recorded” adds a separate entry of the source.

Key:
cathepsin B [1] = biological target: T1, cathepsin B (Homo sapiens, UniProt P07858); assay: Chemiluminescence kinetic profile of probes with or without cathepsin B in activity buffer; format: biochemical; details: probe 1 μM, activity buffer pH 7.4, 10% DMSO, 2.5 units/mL cathepsin B, room temperature
Procedure: FIGS. 1A-1C show the chemiluminescence kinetic profiles of probes 1, 2, 3 and 4 [1 μM] in activity buffer (pH 7.4, 10% DMSO) in the presence of 2.5 units/mL cathepsin B at room temperature (1A; the inset focuses on the kinetic profile of probe 1); the total light emitted from each probe (1B); and the maximal signal yielded by each probe (1C).
(§1) The activity buffer contained: phosphate buffer 0.1M, 55 mM NaCl, 1 mM EDTA, 5 mM glutathione. All spectroscopic measurements were conducted in triplicates. The blank measurements for limit of detection calculation were repeated ten times. Limit of detection (LOD) was calculated as such: LOD=Meanblank+3×SD wherein SD—standard deviation.
Next, chemiluminescence emission of the probes, as a function of time was measured, with or without the addition of cathepsin B. The kinetic profiles of the chemiluminescence signals and their relative total-photon emissions are shown in FIGS. 1A and 1B, respectively. […] From then on, a pattern of increased chemiluminescent signal is seen, correlating to the addendum change and the improved probe solubility in aqueous media. Evaluating the probes for forthcoming cell imaging required us to also assess the maximal signal yielded by each probe, as it will culminate in higher sensitivity and resolution (FIG. 1C). The maximal signal of the different probes pales in comparison to that of probe 4, making it the leading choice for further investigation. No light emission was observed from the probes in the absence of cathepsin B.

CT26 tumor cells = assay: Chemiluminescence microscopy imaging of cathepsin B activity in CT26 tumor cells; format: cell-based; details: probe 5 μM, LV200 microscope, 20 min exposure
Procedure: (§2) Images were obtained following 30 min incubation with cell culture medium containing either probe 3 or probe 4 (5 μM), and were taken using the LV200 Olympus microscope using a 60× objective and 20 min exposure time. Chemiluminescence microscopy image and transmitted light image of […] cells incubated with probe 3 (a and b, respectively); Chemiluminescence microscopy image and transmitted light image of […] cells incubated with probe 4 (c and d, respectively); Chemiluminescence microscopy image and transmitted light image of CT26 cells incubated with probe 3 (e and f, respectively); Chemiluminescence microscopy image and transmitted light image of CT26 cells incubated with probe 4 (g and h, respectively); Chemiluminescence microscopy image and transmitted light image of 3T3 cells incubated with probe 3 (i and j, respectively); Chemiluminescence microscopy image and transmitted light image of 3T3 cells incubated with probe 4 (k and l, respectively).
(§3) Chemiluminescence images were acquired using Olympus LV200 inverted microscope fitted with an EMCCD camera (Hamamatsu C9100-13). […] For visualization of chemiluminescence emission, images were recorded with 20 minutes exposure times. […]

3T3 normal cells = assay: Chemiluminescence microscopy imaging of cathepsin B activity in 3T3 normal cells; format: cell-based, mouse; details: 3T3 cells, probe 5 μM, LV200 microscope, 20 min exposure
Procedure: as §2, §3

Raw 264.7 cells = assay: Chemiluminescence microscopy imaging of cathepsin B activity in Raw 264.7 cells; format: cell-based, murine; details: probe 5 μM, LV200 microscope, 20 min exposure
Procedure: as §2, §3

cathepsin B [2] = biological target: T1, cathepsin B; assay: Sensitivity (limit of detection) of probes to detect cathepsin B, signal/noise vs enzyme concentration; format: biochemical; details: for limit of detection (LOD) of cathepsin B: LOD = mean blank + 3×SD
Procedure: as §1
The sensitivity of probe 4 to detect cathepsin B was measured and compared to that of a classic fluorescent probe (Z-Val-Cit-PABA-7HC) based on 7-hydroxy-coumarin To directly view the comparison between the two detection methods, signal/noise ratio using different cathepsin B concentrations was plotted against enzyme concentration using logarithmic scales (FIG. 4).

cathepsin B [3] = biological target: T1, cathepsin B; assay: HPLC analysis of the enzymatic degradation of the probe by cathepsin B; format: biochemical; details: probe 10 μM, activity buffer pH 7.4, 10% DMSO, 2.5 U/mL cathepsin B
Text: To confirm the connection between the enzymatic degradation and chemiluminescent signal of the probes, HPLC was used to follow the enzymatic degradation of probe 4.

limit of detection (LOD) of cathepsin B (cathepsin B [2]; fluorescence)	SMILES	chemiluminescence emission (signal) upon addition of cathepsin B (cathepsin B [1])	chemiluminescence signal in cell imaging (CT26 tumor cells)	chemiluminescence signal in cell imaging (3T3 normal cells)	chemiluminescence signal in cell imaging (Raw 264.7 cells)	limit of detection (LOD) of cathepsin B (cathepsin B [2]; chemiluminescence)	superior sensitivity vs. fluorescent probe Z-Val-Cit-PABA-7HC (cathepsin B [2]; ratio of LOD values)	enzymatic degradation followed by HPLC (cathepsin B [3])
	COC1(c2cccc(OCc3ccc(NC(=O)C(CCCNC(N)=O)NC(=O)C(NC(=O)OCc4ccccc4)C(C)C)cc3)c2Cl)OOC12C1CC3CC(C1)CC2C3 (centres unmarked) [Probe 1]	extremely weak emission						
	COC(=O)/C=C/c1ccc(C2(OC)OOC23C2CC4CC(C2)CC3C4)c(Cl)c1OCc1ccc(NC(=O)C(CCCNC(N)=O)NC(=O)C(NC(=O)OCc2ccccc2)C(C)C)cc1 (centres unmarked) [Probe 2]	distinct increase in the chemiluminescent signal						
	COCCOCCOCCOCCOCCOCCOCCOCCOCCOCCOCCOCCOCCOCCOCCOCCOCCOC(=O)NC(C(=O)NC(CCCNC(N)=O)C(=O)Nc1ccc(COc2c(/C=C/C(=O)OC)ccc(C3(OC)OOC34C3CC5CC(C3)CC4C5)c2Cl)cc1)C(C)C (centres unmarked) [Probe 3]	distinct increase in the chemiluminescent signal; also recorded: highest light emission	no chemiluminescence signal	no chemiluminescence signal	no chemiluminescence signal			
	COC(=O)/C=C/c1ccc(C2(OC)OOC23C2CC4CC(C2)CC3C4)c(Cl)c1OCc1ccc(NC(=O)C(CCCNC(N)=O)NC(=O)C(NC(=O)CCCCCN2C(=O)CC(SC[C@@H](N)C(=O)NCC(=O)N[C@H](CCCCN)C(=O)N[C@H](CCCNC(=N)N)C(=O)N[C@H](CCCCN)C(=O)O)C2=O)C(C)C)cc1 (some centres unmarked) [Probe 4]	distinct increase in the chemiluminescent signal; also recorded: highest light emission	imaged via the chemiluminescence signal	no chemiluminescence signal was observed	imaged via the chemiluminescence signal	76.29 μU/mL	more than 16,000 fold	rapid enzymatic disassembly
1.25 U/mL	CC(C)C(NC(=O)OCc1ccccc1)C(=O)NC(CCCNC(N)=O)C(=O)Nc1ccc(COc2ccc3ccc(=O)oc3c2)cc1 (stereo not drawn) [Z-Val-Cit-PABA-7HC, reference compound]							
